Assay results from US10544155B2, “Spirocyclic quinolizine derivatives useful as HIV integrase inhibitors” (MERCK SHARP & DOHME CORP., priority 2015, dated 2020).
Where two headings read alike, the source gives them in different places.

System: HIV-1 (NL4-3 strain)
Test: Assay for inhibition of HIV replication (MT4-gag-GFP reporter cell line, wild type cell assay, Viking)
Format: cell-based
Settings: IP from 4-parameter dose response curve
Procedure: This assay is a kinetic assay that employs a reporter cell line (MT4-gag-GFP) to quantify the number of new cells infected in each round of replication.
MT4-GFP cells (250,000 cells/ml) were bulk-infected with HIV-1 (NL4-3 strain) at low multiplicity of infection (MOI) in RPMI+10% FBS for 24 hours. Cells were then washed once in RPMI+10% FBS and resuspended in RPMI+0% or 10% or 100% normal human serum (NHS). Test compounds were serial-diluted in DMSO on ECHO. The infected MT4-GFP cells were added to a 384-well poly-D-lysine coated black plate with clear bottom in which the diluted test compounds were placed. The cells were seeded at 8,000 cells per well and the final DMSO concentration was 0.4%. The infected cells (Green GFP cells) were quantified at both 24 and 48 hours post incubation using Acumen eX3. Viral reproductive ratio (R0) was determined using the number of infected cells at 48 hours divided by the number of infected cells at 24 hours. Percent viral growth inhibition was calculated by [1−(R−Rtripledrug)/(RDMSO−Rtripledrug)]*100. Compound potency IP or IC50 was determined by a 4-parameter dose response curve analysis.

[1] = MT4-GFP cells infected with HIV-1 NL4-3, 0% normal human serum, read-out: WILD TYPE CELL ASSAY Viking IP (0% NHS)
[2] = MT4-GFP cells infected with HIV-1 NL4-3, 100% normal human serum, read-out: WILD TYPE CELL ASSAY Viking IP (100% NHS)
[3] = Human immunodeficiency virus 1, NL43, MT4-GFP cells infected with HIV-1 NL4-3, 0% normal human serum, read-out: WILD TYPE CELL ASSAY Viking IP (0% NHS)
[4] = Human immunodeficiency virus 1, NL43, MT4-GFP cells infected with HIV-1 NL4-3, 100% normal human serum, read-out: WILD TYPE CELL ASSAY Viking IP (100% NHS)

With `CC1(C)C(=O)c2c(O)c(=O)c(C(=O)NCc3ccc(F)cc3F)cn2CC12CCCO2` (single isomer, unassigned) [Compound 1] the IC50 [1] was 0.9 nM and the IC50 [2] was 175 nM.
`CC1(C)C(=O)c2c(O)c(=O)c(C(=O)NCc3ccc(F)cc3F)cn2CC12CCCO2` (single isomer, unassigned) [Compound 2] gave an IC50 [1] of 1.2 nM and an IC50 [2] of 2300 nM.
For `CC1(C)C(=O)c2c(O)c(=O)c(C(=O)NCc3cccc(Cl)c3F)cn2CC12CCCO2` (single isomer, unassigned) [Compound 6], the IC50 [3] was 1.8 nM and the IC50 [4] was 581 nM.
For `CC1(C)C(=O)c2c(O)c(=O)c(C(=O)NCc3ccc(F)c(Cl)c3F)cn2CC12CCCO2` (single isomer, unassigned) [Compound 8], the IC50 [3] was 1.7 nM and the IC50 [4] was 585 nM.
Compound `CC1(C)C(=O)c2c(O)c(=O)c(C(=O)NCc3ccc(F)cc3)cn2CC12CCCO2` (single isomer, unassigned) [Compound 10] has an IC50 [3] of 7 nM and an IC50 [4] of 425 nM.
With `CC1n2cc(C(=O)NCc3ccc(F)cc3F)c(=O)c(O)c2C(=O)C(C)(C)C12CCCO2` (single isomer, unassigned) [Compound 14] the IC50 [3] was 2 nM and the IC50 [4] was 3300 nM.
Work on `CC1COC2(C1)Cn1cc(C(=O)NCc3cccc(Cl)c3F)c(=O)c(O)c1C(=O)C2(C)C` (single isomer, unassigned) [Compound 20] yielded an IC50 [1] of 2 nM and an IC50 [2] of 1160 nM.
`CC1COC2(C1)Cn1cc(C(=O)NCc3cccc(Cl)c3F)c(=O)c(O)c1C(=O)C2(C)C` (single isomer, unassigned) [Compound 21] showed an IC50 [1] of 1.3 nM and an IC50 [2] of 226 nM.
`CC1COC2(C1)Cn1cc(C(=O)NCc3cccc(Cl)c3F)c(=O)c(O)c1C(=O)C2(C)C` (single isomer, unassigned) [Compound 22] showed an IC50 [1] of 0.8 nM and an IC50 [2] of 1540 nM.
`CC1COC2(C1)Cn1cc(C(=O)NCc3cccc(Cl)c3F)c(=O)c(O)c1C(=O)C2(C)C` (single isomer, unassigned) [Compound 23] was tested, and the IC50 [1] was 1 nM and the IC50 [2] was 717 nM.
Work on `CC1COC2(C1)Cn1cc(-c3nnc(Cc4ccc(F)cc4F)s3)c(=O)c(O)c1C(=O)C2(C)C` (single isomer, unassigned) [Compound 24] yielded an IC50 [3] of 2.9 nM and an IC50 [2] of 354 nM.
For `CC1COC2(C1)Cn1cc(-c3nnc(Cc4ccc(F)cc4F)s3)c(=O)c(O)c1C(=O)C2(C)C` (single isomer, unassigned) [Compound 25], the IC50 [1] was 3.8 nM and the IC50 [2] was 1120 nM.
`CC1(C)C(=O)c2c(O)c(=O)c(C(=O)NCc3ccc(F)cc3F)cn2CC12CCCCO2` (stereo not drawn) [Compound 3] gave an IC50 [1] of 4.2 nM and an IC50 [2] of 2540 nM.
`C/C=C1\C(=O)c2c(O)c(=O)c(C(=O)NCc3ccc(F)cc3F)cn2CC12CCOCC2` [Compound 5] was tested, and the IC50 [1] was 3.9 nM and the IC50 [2] was 592 nM.
`CC1(C)C(=O)c2c(O)c(=O)c(C(=O)NCc3cccc(Cl)c3F)cn2CC12CCCO2` (stereo not drawn) [Compound 7] was tested, and the IC50 [3] was 1.8 nM and the IC50 [4] was > 8000 nM.
With `CC1(C)C(=O)c2c(O)c(=O)c(C(=O)NCc3ccc(F)c(Cl)c3F)cn2CC12CCCO2` (stereo not drawn) [Compound 9] the IC50 [3] was 1.7 nM and the IC50 [4] was 6670 nM.
Compound `CC1(C)C(=O)c2c(O)c(=O)c(C(=O)NCc3ccc(F)cc3)cn2CC12CCCO2` (stereo not drawn) [Compound 11] has an IC50 [3] of 7.8 nM and an IC50 [4] of 4920 nM.
`CC1(C)C(=O)c2c(O)c(=O)c(-c3nnc(Cc4ccc(F)cc4F)s3)cn2CC12CCCO2` (stereo not drawn) [Compound 12] was tested, and the IC50 [1] was 5 nM and the IC50 [2] was > 8000 nM.
With `CC1(C)C(=O)c2c(O)c(=O)c(-c3nnc(Cc4ccc(F)cc4F)s3)cn2CC12CCCO2` (stereo not drawn) [Compound 13] the IC50 [1] was 5.4 nM and the IC50 [2] was 585 nM.
With `CC1n2cc(C(=O)NCc3ccc(F)cc3F)c(=O)c(O)c2C(=O)C(C)(C)C12CCCO2` (stereo not drawn) [Compound 15] the IC50 [3] was 2.4 nM and the IC50 [4] was 149 nM.
With `CC1COC2(C1)Cn1cc(C(=O)NCc3ccc(F)cc3F)c(=O)c(O)c1C(=O)C2(C)C` (stereo not drawn) [Compound 16] the IC50 [3] was 3.1 nM and the IC50 [2] was 634 nM.
`CC1COC2(C1)Cn1cc(C(=O)NCc3ccc(F)cc3F)c(=O)c(O)c1C(=O)C2(C)C` (stereo not drawn) [Compound 17] was tested, and the IC50 [1] was 3.1 nM and the IC50 [2] was 307 nM.
With `CC1COC2(C1)Cn1cc(C(=O)NCc3ccc(F)cc3F)c(=O)c(O)c1C(=O)C2(C)C` (stereo not drawn) [Compound 18] the IC50 [1] was 2.7 nM and the IC50 [2] was 855 nM.
Work on `CC1COC2(C1)Cn1cc(C(=O)NCc3ccc(F)cc3F)c(=O)c(O)c1C(=O)C2(C)C` (stereo not drawn) [Compound 19] yielded an IC50 [1] of 2.6 nM and an IC50 [2] of 453 nM.
